Reference: ChEMBL document CHEMBL6127100, “Plant based steroidal and triterpenoid sapogenins: Chemistry on diosgenin and biological aspects” (Eur J Med Chem, 2024)
Blank lines part the entries; values can stand above or below the molecule they belong to.

What was measured:
Assay type in all cases: functional, cell-based
SH-SY5Y = assay: Cytotoxicity against human SH-SY5Y cells assessed as reduction in cell viability incubated for 24 hrs by MTT assay
HepG2 [1] = assay: Cytotoxicity against human HepG2 cells assessed as reduction in cell viability incubated for 24 hrs by MTT assay; details: HepG2, 24 h
HeLa [2] = assay: Antiproliferative activity against human HeLa cells assessed as reduction in cell viability incubated for 24 hrs by MTT assay
HepG2 [3] = assay: Antiproliferative activity against human HepG2 cells assessed as reduction in cell viability incubated for 24 hrs ny MTT assay; details: HepG2, 24 h
HuCC-A1 = assay: Cytotoxicity against human HuCC-A1 cells assessed as reduction in cell growth incubated for 3 days by micro-titer plate reader analysis; details: HuCC-A1, 72 h
MDA-MB-231 [4] = assay: Cytotoxicity against human MDA-MB-231 cells assessed as reduction in cell growth incubated for 48 hrs by MTT assay; details: MDA-MB-231, 48 h
KB = assay: Cytotoxicity against human KB cells assessed as reduction in cell growth incubated for 3 days by micro-titer plate reader analysis; details: 72 h
HeLa [5] = assay: Cytotoxicity against human HeLa cells assessed as reduction in cell growth incubated for 48 hrs by MTT assay
HeLa [6] = assay: Antiproliferative activity against human HeLa cells assessed as reduction in cell growth after 48 hrs by MTT assay
Ca-Ski [7] = assay: Antiproliferative activity against human Ca-Ski cells assessed as reduction in cell growth after 48 hrs by MTT assay
U-937 = assay: Cytotoxicity against human U-937 cells
Ca-Ski [8] = assay: Cytotoxicity against human Ca-Ski cells
HeLa [9] = assay: Cytotoxicity against human HeLa cells
BT-474 = assay: Cytotoxicity against human BT-474 cells
DU-145 = assay: Cytotoxicity against human DU-145 cells
MDA-MB-231 [10] = assay: Cytotoxicity against human MDA-MB-231 cells
T98G = assay: Antiproliferative activity against human T98G cells assessed as inhibition of cell growth incubated for 72 hrs by celltiter-glo assay
CCRF-CEM = assay: Cytotoxicity against human CCRF-CEM cells

SMILES: CC[C@H](C)[C@H](NC(=O)OC(C)(C)C)C(=O)O[C@H]1CC[C@@]2(C)C(=CC[C@H]3[C@@H]4C[C@@H]5O[C@]6(CC[C@@H](C)CO6)[C@@H](C)[C@@H]5[C@@]4(C)CC[C@@H]32)C1
IC50 (SH-SY5Y): 18.5 µM

SMILES: C[C@@H]1CC[C@@]2(OC1)O[C@H]1C[C@H]3[C@@H]4CC=C5C[C@@H](O[C@@H]6O[C@H](CO)[C@@H](O[C@@H]7O[C@@H](CO)[C@H](O)[C@H]7O)[C@H](O)[C@H]6O[C@@H]6O[C@@H](C)[C@H](O)[C@@H](O)[C@H]6O)CC[C@]5(C)[C@H]4CC[C@]3(C)[C@H]1[C@@H]2C
IC50 (HepG2 [1]): 12.2 µM

IC50 (HeLa [2]): 14.1 µM
IC50 (HepG2 [3]): 1.24 µM
SMILES: C[C@H](CC[C@H]1O[C@H]2C[C@H]3[C@@H]4CC=C5C[C@@H](O)CC[C@]5(C)[C@H]4CC[C@]3(C)[C@H]2[C@@H]1C)COC1=C(Cl)C(=O)c2ccccc2C1=O

SMILES: C[C@@H]1CC[C@@]2(OC1)O[C@H]1C[C@H]3[C@@H]4CC=C5C[C@@H](OC(=O)[C@@H]6CCCN6)CC[C@]5(C)[C@H]4CC[C@]3(C)[C@H]1[C@@H]2C
IC50 (SH-SY5Y): 7.2 µM

SMILES: C[C@@H]1CC[C@@]2(OC1)O[C@H]1C[C@H]3[C@@H]4CC=C5C[C@@H](O[C@@H]6O[C@H](CO)[C@@H](O[C@@H]7O[C@H](CO)[C@@H](O[C@@H]8O[C@@H](C)[C@H](O)[C@@H](O)[C@H]8O)[C@H](O)[C@H]7O)[C@H](O)[C@H]6O[C@@H]6O[C@@H](C)[C@H](O)[C@@H](O)[C@H]6O)CC[C@]5(C)[C@H]4CC[C@]3(C)[C@H]1[C@@H]2C
IC50 (HuCC-A1): 2.6 µM
IC50 (MDA-MB-231 [4]): 0.9 µM
IC50 (KB): 0.9 µM
IC50 (HeLa [5]): 0.7 µM

IC50 (HeLa [6]): 45.1 µM
SMILES: C[C@@H]1CC[C@@]2(OC1)O[C@H]1C[C@H]3[C@@H]4CC=C5C[C@@H](O[C@@H]6O[C@H](CO)[C@@H](O[C@@H]7O[C@@H](C)[C@H](O)[C@@H](O)[C@H]7O)[C@H](O)[C@H]6O)CC[C@]5(C)[C@H]4CC[C@]3(C)[C@H]1[C@@H]2C
IC50 (Ca-Ski [7]): 80 µM

IC50 (HepG2 [3]): 19.7 µM
SMILES: C[C@H](CC[C@H]1O[C@H]2C[C@H]3[C@@H]4CC=C5C[C@@H](O[Si](C)(C)C(C)(C)C)CC[C@]5(C)[C@H]4CC[C@]3(C)[C@H]2[C@@H]1C)COC1=C(Cl)C(=O)c2ncccc2C1=O

SMILES: C[C@@H]1CC[C@@]2(OC1)O[C@H]1C[C@H]3[C@@H]4CC(n5cc(-c6ccccn6)nn5)C5(O)C[C@@H](O)CC[C@]5(C)[C@H]4CC[C@]3(C)[C@H]1[C@@H]2C (stereo not given in full)
IC50 (U-937): 15.2 µM

IC50 (HeLa [6]): 39.1 µM
SMILES: C[C@@H]1CC[C@@]2(OC1)O[C@H]1C[C@H]3[C@@H]4CC=C5C[C@@H](O[C@@H]6O[C@H](CO)[C@@H](O)[C@H](O)[C@H]6O)CC[C@]5(C)[C@H]4CC[C@]3(C)[C@H]1[C@@H]2C [DISOGLUSIDE]
IC50 (Ca-Ski [7]): 41 µM

IC50 (HepG2 [3]): 13.5 µM
SMILES: CC(=O)O[C@H]1CC[C@@]2(C)C(=CC[C@H]3[C@@H]4C[C@@H]5O[C@H](CC[C@@H](C)COC6=C(Cl)C(=O)c7ccccc7C6=O)[C@@H](C)[C@@H]5[C@@]4(C)CC[C@@H]32)C1

SMILES: C[C@@H]1CC[C@@]2(OC1)O[C@H]1C[C@H]3[C@@H]4CC=C5C[C@@H](O[C@@H]6O[C@H](CO)[C@@H](O[C@@H]7O[C@@H](C)[C@H](O[C@@H]8O[C@@H](C)[C@H](O[C@@H]9O[C@@H](C)[C@H](O[C@@H]%10O[C@@H](C)[C@H](O)[C@@H](O)[C@H]%10O)[C@@H](O)[C@H]9O)[C@@H](O)[C@H]8O)[C@@H](O)[C@H]7O)[C@H](O)[C@H]6O[C@@H]6O[C@@H](C)[C@H](O)[C@@H](O)[C@H]6O)CC[C@]5(C)[C@H]4CC[C@]3(C)[C@H]1[C@@H]2C
IC50 (HepG2 [1]): 13.4 µM

SMILES: CC(=O)O[C@@H]1C=C2CC[C@H]3[C@@H]4C[C@@H]5O[C@@]6(OC[C@H](C)CC6/C(C)=N\O)[C@@H](C)[C@@H]5[C@@]4(C)CC[C@@H]3[C@@]2(C)CC1 (stereo not given in full)
IC50 (Ca-Ski [8]): 5.4 µM
IC50 (HeLa [9]): 5.6 µM

SMILES: C[C@@H]1CC[C@@]2(OC1)O[C@H]1C[C@H]3[C@@H]4CC(n5cc(-c6ccc(F)cc6)nn5)C5(O)C[C@@H](O)CC[C@]5(C)[C@H]4CC[C@]3(C)[C@H]1[C@@H]2C (stereo not given in full)
IC50 (BT-474): 3.85 µM
IC50 (DU-145): 10.1 µM
IC50 (MDA-MB-231 [10]): 7.08 µM
IC50 (U-937): 7.07 µM
IC50 (T98G): 8.87 µM
IC50 (CCRF-CEM): 5.44 µM
